Experimental data as given in patent publication US20100035896A1, “Combination of N-(3-methoxy-5-methylpyrazin-2-yl)-2-(4-[1,3,4-oxadiazol-2-yl]phenyl)pyridine-3-sulphonamide and an anti-mitotic cytotoxic agent” (ASTRAZENECA AB, priority 2004, published 2010).
Ends that are not written are not given here.

Key:
[1] = test system: Human ovarian tumour cell lines (OVCA 433 and HEY); experiment: Apoptosis in serum-starved ovarian tumour cell lines, cell detection ELISA Plus kit; type: cell-based; details: HEY and OVCA 433 cells, 24 h serum starvation, 24 h treatment; Compound (I) 1 μM, paclitaxel 60 nM, alone or combined; FIG. 1
Text: To evaluate the effect of Compound (I) in combination with an anti-mitotic cytotoxic agent (paclitaxel) on the growth of various carcinoma cells, we utilised two established human ovarian cell lines (HEY and OVCA 433**) which express functional endothelin A (ETa) receptors and secrete high levels of endothelin-1 (ET-1). ET-1 is an anti-apoptotic factor in many cell types, having this effect via ETa receptors. ** OVCA 433 was established from ascites obtained from a patient with advanced serous ovarian adenocarcinoma (Tsa, S W et al., (1995) Exp. Cell Res. 218: 499-507) and HEY was derived from a xenograft of a peritoneal deposit of a cystoadeonocarcinoma of the ovary (Buick, R. N. et al., (1985) Cancer Research 45: 3668-3676). PPC-1 cells were originally derived from a human prostate tumour and were obtained from the laboratory of Dr. J. Nelson, University of Pittsburgh). In vitro studies in ovarian cells: Human ovarian tumour cell lines (OVCA 433 and HEY) were maintained in culture media containing serum until sufficient numbers were available for experimentation. […] Following treatment for 24 hours, apoptosis was measured by a standard cell detection ELISA Plus kit (Boehringer Manheim). […] At the end of this 24 hour period, viable cell numbers were measured by a standard MTT assay (Mossman, J Inmunol Methods. (1983) 65, 55-63). […]

[2] = test system: HEY ovarian cell xenografts; experiment: Growth of subcutaneous HEY ovarian carcinoma xenografts in athymic mice; type: in vivo; details: Compound (I) 10 mg/kg/day i.p. for 21 days, paclitaxel 20 mg/kg i.v. every 4 days for 3 doses, alone or both, FIG. 2
Protocol: In vitro studies in ovarian cells: Human ovarian tumour cell lines (OVCA 433 and HEY) were maintained in culture media containing serum until sufficient numbers were available for experimentation. At this time the cells were transferred into media without serum. After 24 hours of serum starvation, cells were treated with either Compound (I) (1 μM) or paclitaxel (60 nM), or Compound (I)+paclitaxel. Following treatment for 24 hours, apoptosis was measured by a standard cell detection ELISA Plus kit (Boehringer Manheim). In vitro studies in prostate cells: Human prostate tumour cells (PPC-1) were maintained in culture medium containing serum until sufficient numbers were available for experimentation. After this time cells were transferred into media without serum. After 23 hours of serum starvation cells were treated with either endothelin 1 (10^−7M) or endothelin 1+Compound (I) at 10^−7M. An additional group of cells received vehicle control alone. One hour later cells were treated with paclitaxel or docetaxel at either 10^−6M, 10^−8M or 10^−10M for 24 hours. At the end of this 24 hour period, viable cell numbers were measured by a standard MTT assay (Mossman, J Inmunol Methods. (1983) 65, 55-63). In vivo studies: Athymic mice were given subcutaneous injections of 1.5×10^6 HEY cells into the flank. […]

[3] = test system: Human prostate tumour cells (PPC-1); experiment: Viable cell numbers of prostate tumour cells by MTT assay; type: cell-based; details: PPC-1 cells, FIG. 3; for numbers of viable prostate cells remaining in culture: cytotoxic alone at 10^-6, 10^-8 or 10^-10 M for 24 hours
Text: ** OVCA 433 was established from ascites obtained from a patient with advanced serous ovarian adenocarcinoma (Tsa, S W et al., (1995) Exp. Cell Res. 218: 499-507) and HEY was derived from a xenograft of a peritoneal deposit of a cystoadeonocarcinoma of the ovary (Buick, R. N. et al., (1985) Cancer Research 45: 3668-3676). PPC-1 cells were originally derived from a human prostate tumour and were obtained from the laboratory of Dr. J. Nelson, University of Pittsburgh).
In vitro studies in ovarian cells: Human ovarian tumour cell lines (OVCA 433 and HEY) were maintained in culture media containing serum until sufficient numbers were available for experimentation. At this time the cells were transferred into media without serum. After 24 hours of serum starvation, cells were treated with either Compound (I) (1 μM) or paclitaxel (60 nM), or Compound (I)+paclitaxel. Following treatment for 24 hours, apoptosis was measured by a standard cell detection ELISA Plus kit (Boehringer Manheim). In vitro studies in prostate cells: Human prostate tumour cells (PPC-1) were maintained in culture medium containing serum until sufficient numbers were available for experimentation. After this time cells were transferred into media without serum. After 23 hours of serum starvation cells were treated with either endothelin 1 (10^−7M) or endothelin 1+Compound (I) at 10^−7M. An additional group of cells received vehicle control alone. One hour later cells were treated with paclitaxel or docetaxel at either 10^−6M, 10^−8M or 10^−10M for 24 hours. At the end of this 24 hour period, viable cell numbers were measured by a standard MTT assay (Mossman, J Inmunol Methods. (1983) 65, 55-63). In vivo studies: Athymic mice were given subcutaneous injections of 1.5×10^6 HEY cells into the flank. After 7 days, when established tumours had formed, mice were randomized to 4 treatment groups with 10 mice in each group. One group was treated with Compound (I) given by daily intraperitoneal injections (10 mg/kg/day) for 21 days. A second group received intravenous injections of paclitaxel (20 mg/kg) every 4 days for 3 doses. A third group received both paclitaxel and Compound (I) and a fourth group was given injections in the same way using vehicle alone. The experiments were replicated three times.

## COc1nc(C)cnc1NS(=O)(=O)c1cccnc1-c1ccc(-c2nnco2)cc1 [Compound (I), N-(3-methoxy-5-methylpyrazin-2-yl)-2-(4-[1,3,4-oxadiazol-2-yl]phenyl)pyridine-3-sulphonamide]
[1]
  effect on apoptosis: no statistically significant effects
[2]
  inhibition of HEY ovarian cell xenografts (tumour growth): significant inhibition
[3]; endothelin 1 10^-7 M + Compound (I) 10^-7 M, one hour before paclitaxel or docetaxel
  effect on the endothelin-1 reversal of cytotoxic-induced reduction in viable cell number: blocked

## CC(=O)O[C@@]12CO[C@@H]1C[C@H](O)[C@@]1(C)C(=O)[C@H](O)C3=C(C)[C@@H](OC(=O)[C@H](O)[C@@H](NC(=O)OC(C)(C)C)c4ccccc4)C[C@@](O)([C@@H](OC(=O)c4ccccc4)[C@H]21)C3(C)C [docetaxel, Docetaxel]
[3]
  numbers of viable prostate cells remaining in culture: significantly reduced

## CC(=O)O[C@H]1C(=O)[C@@]2(C)[C@H]([C@H](OC(=O)c3ccccc3)[C@]3(O)C[C@H](OC(=O)[C@H](O)[C@@H](NC(=O)c4ccccc4)c4ccccc4)C(C)=C1C3(C)C)[C@]1(OC(C)=O)CO[C@@H]1C[C@@H]2O [paclitaxel, Paclitaxel]
[1]
  effect on apoptosis: no statistically significant effects
[2]
  inhibition of HEY ovarian cell xenografts (tumour growth): degree of inhibition was similar
[3]
  numbers of viable prostate cells remaining in culture: significantly reduced

## endothelin-1 (CSCSSLMDKECVYFCHLDIIW; ends and bridges not checked; cysteine pairing not given here; UniProt P05305 53-73, looked up) [endogenous 21 amino acid peptide, anti-apoptotic factor acting via ETa receptors]
[3]; endothelin 1 10^-7 M given one hour before paclitaxel or docetaxel
  effect on the paclitaxel- or docetaxel-induced reduction in viable cell number: reversed
